We go through 10 compounds from ChEMBL document CHEMBL1157715, “Probes for narcotic receptor mediated phenomena. 40. N-substituted cis-4a-ethyl-1,2,3,4,4a,9a-hexahydrobenzofuro[2,3-c]pyridin-8-ols” (Bioorg Med Chem, 2010).

The structures appear in SMILES notation. Some results are limits rather than exact numbers.

Type in all cases: cell-based
The target of assay [1] is Kappa-type opioid receptor (Homo sapiens, UniProt P41145). The assay is described as follows: Displacement of [3H]U69593 from kappa opioid receptor expressed in CHO cells. (Loss of bound radioactivity is the signal in a displacement assay; it reports binding, not function.)
The target in a further assay is Mu-type opioid receptor (Homo sapiens, UniProt P35372). Kind of assay: Displacement of [3H]DAMGO from mu opioid receptor expressed in CHO cells.
Assay [2] concerns the target Delta-type opioid receptor (Homo sapiens, UniProt P41143). Kind of assay: Displacement of [3H]DADLE from delta opioid receptor expressed in CHO cells.

Chain of Delta-type opioid receptor (P41143 whole entry): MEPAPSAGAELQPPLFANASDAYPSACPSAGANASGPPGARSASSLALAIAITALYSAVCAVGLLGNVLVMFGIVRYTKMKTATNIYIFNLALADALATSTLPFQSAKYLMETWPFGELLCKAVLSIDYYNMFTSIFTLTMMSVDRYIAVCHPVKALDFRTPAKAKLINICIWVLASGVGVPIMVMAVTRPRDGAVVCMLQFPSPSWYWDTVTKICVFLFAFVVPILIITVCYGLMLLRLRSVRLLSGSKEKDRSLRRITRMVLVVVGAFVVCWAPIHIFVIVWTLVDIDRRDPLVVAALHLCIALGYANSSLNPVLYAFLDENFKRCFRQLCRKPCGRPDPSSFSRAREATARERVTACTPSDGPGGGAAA
Chain of Mu-type opioid receptor (P35372 whole entry): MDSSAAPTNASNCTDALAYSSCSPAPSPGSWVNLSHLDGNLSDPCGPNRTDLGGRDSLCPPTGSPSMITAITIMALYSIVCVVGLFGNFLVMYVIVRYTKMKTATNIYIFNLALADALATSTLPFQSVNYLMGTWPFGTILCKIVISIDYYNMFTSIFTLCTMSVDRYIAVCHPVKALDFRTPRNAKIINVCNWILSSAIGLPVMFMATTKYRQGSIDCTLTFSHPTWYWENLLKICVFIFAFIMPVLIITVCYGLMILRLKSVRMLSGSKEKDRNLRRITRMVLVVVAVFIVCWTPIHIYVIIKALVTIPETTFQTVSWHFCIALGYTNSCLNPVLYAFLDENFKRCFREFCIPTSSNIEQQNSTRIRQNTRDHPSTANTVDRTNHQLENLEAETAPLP
Chain of Kappa-type opioid receptor (P41145 whole entry): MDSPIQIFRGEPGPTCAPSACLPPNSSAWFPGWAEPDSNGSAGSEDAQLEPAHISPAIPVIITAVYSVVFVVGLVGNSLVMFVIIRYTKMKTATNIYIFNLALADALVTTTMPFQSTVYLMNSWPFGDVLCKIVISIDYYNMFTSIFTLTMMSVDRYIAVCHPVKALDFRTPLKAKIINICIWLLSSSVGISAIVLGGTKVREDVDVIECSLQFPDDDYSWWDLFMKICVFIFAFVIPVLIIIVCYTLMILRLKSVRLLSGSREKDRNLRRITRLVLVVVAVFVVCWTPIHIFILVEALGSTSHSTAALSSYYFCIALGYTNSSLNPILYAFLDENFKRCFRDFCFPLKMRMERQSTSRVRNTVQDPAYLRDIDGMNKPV

For the compound `CC[C@@]12CCN(CCc3ccccc3)C[C@@H]1Oc1c(O)cccc12` (racemic), the Ki (in general, a dissociation constant, usually derived from enzyme kinetics or from competition with a known ligand) in assay [1] stood at 2220 nM; at Mu-type opioid receptor, 1630 nM; in assay [2], 7210 nM.

`Oc1ccc2c(c1)C1CCN(CC3CC3)CC1O2` (stereo unspecified) registered a Ki at Mu-type opioid receptor of 4 nM.

As for `CN1CC[C@@]2(CCc3ccccc3)c3cccc(O)c3O[C@H]2C1` (racemic), the Ki was 2880 nM in assay [1], 740 nM on Mu-type opioid receptor and above 4300 nM in assay [2].

`CC[C@@]12CCN(C)C[C@@H]1Oc1c(O)cccc12` (racemic): the values for the Ki (in assay [1]; on Mu-type opioid receptor; in assay [2]) were above 10000 nM, 795 nM and 7480 nM, respectively.

`CC[C@@]12CCN(CCc3ccc(F)cc3)C[C@@H]1Oc1c(O)cccc12` (racemic): the Ki is 935 nM in assay [1], 354 nM at Mu-type opioid receptor and above 4500 nM in assay [2].

In the case of `CC[C@@]12CCN(CCc3ccc([N+](=O)[O-])cc3)C[C@@H]1Oc1c(O)cccc12` (racemic), the Ki in assay [1] worked out at 720 nM; at Mu-type opioid receptor it was 670 nM; in assay [2] it was 2260 nM.

Turning to `CC[C@@]12CCN(Cc3ccc(F)cc3)C[C@@H]1Oc1c(O)cccc12` (racemic), the figures for the Ki (in assay [1]; at Mu-type opioid receptor; in assay [2]) were 3380 nM, above 2700 nM and above 4500 nM, respectively.

`CC[C@@]12CCN(CCc3ccccc3)C[C@@H]1Oc1ccc(O)cc12`: the Ki amounted to 88 nM in assay [1], 0.7 nM at Mu-type opioid receptor and 75 nM in assay [2].

Turning to `Oc1ccc2c(c1)C1CCN(CCc3ccccc3)CC1O2` (stereo unspecified), at Mu-type opioid receptor, the affinity, expressed as Ki, was 0.9 nM.

In the case of `CC[C@@]12CCN(CC3CC3)C[C@@H]1Oc1c(O)cccc12` (racemic), the Ki in assay [1] amounted to 10000 nM; at Mu-type opioid receptor, 4670 nM; in assay [2], 6150 nM.
